Results as given in publication PMC11871066, “Structure-based discovery of hydrocarbon-stapled paxillin peptides that block FAK scaffolding in cancer” (Nature Communications, 2025).
Like-named read-outs stand apart in the source and are kept apart here. Bridge positions count the residues as written; N and C are the ends. Square brackets hold non-standard residues; d marks the D form. Peptide text beside a SMILES is read from it. * marks the point of attachment. Myristoyl = CCCCCCCCCCCCCC(=O)*; R8 = C=CCCCCCC[C@@](C)(N)C(=O)O; S5 = C=CCCC[C@](C)(N)C(=O)O

Columns and labels:
[1] = tested on: SK-MEL-147 cells; test: RealTime-Glo Annexin V apoptosis assay; format: cell-based, human; conditions: for induction of apoptosis, time-course: every 24 h over 96 h
Procedure: SK-MEL-147 cells were seeded at 1000 cells/well in 384-well white-walled, clear-bottom plates (Corning). Cells were allowed to adhere overnight. Serial twofold dilutions of drugs were prepared starting at 200 μM. Immediately after adding the drug treatments, 2X RealTime-Glo™ Annexin V Apoptosis detection reagent (Promega) was added. Replicates were also included for the following controls: “no-cell” (negative), vehicle-only controls (negative), and cisplatin (5 μM, positive). […] Dose-response curves and EC50 curves were obtained using GraphPad Prism (version 10.3.1), reporting mean luminescence relative to DMSO ± SD. A minimum of 5 independent biological runs (n = 5) were performed per treatment group. […]
manner via Annexin V apopt osi s ti me -course study. SK -MEL- 147 cells treated with ( a) 2012, (b) 2 0 20, and (c) defactinib are evaluated for apoptosis using RealTime- Glo system for Annexin V binding. EC50 curves representing data obtained every 24 hours, over the course of 96 hours total. EC50 cur ves f it us i ng GraphPad Prism reporting mean ± SD of (a) 7 biological replicates (n=7); (b) 5 biological replicates (n =5); and (c) 5 biological replicates (n =5). Source data are provided as Source Data files.

[2] = biological target: 97 kinases (kinase named in endpoint) (Homo sapiens, UniProt P35968); test: Eurofins KINOMEscan profiling, 97 kinases; conditions: read-out: % Ctrl, VEGFR2
Procedure: (§2) This experiment was performed by Eurofins KINOMEscan™ Profiling Service. […] The lysates were centrifuged and filtered, the remaining kinases were produced in HEK-293 cells and subsequently tagged with DNA for qPCR detection. […] The liganded beads were blocked with excess biotin and washed with blocking buffer (SeaBlock (Pierce), 1% BSA, 0.05% Tween-20, 1 mM DTT). […] Test compounds were prepared as 100x stocks in 100% DMSO and directly diluted into the assay. All reactions were performed in polypropylene 384-well plates in a final volume of 0.02 ml. […] The kinase concentration in the eluates was measured by qPCR.
(§3) (negative control signal - positive control signal)] x 100. ( b) AccompanyingSelectivity Scores or S -scores
(§4) which are quantitative measures of compound selectivity. They are calculated by dividing the number of
(§5) kinases that compounds bind to by the total number of distinct kinases tested, excluding mutant variants.
(§6) S(35)= ( num ber of non -mutant kinases with %Ctrl <35)/(number of non- mutant kinases tested)], S(10)=
(§7) non- mutant kinases with %Ctrl <1)/(number of non- mutant kinases tested)].

[3] = biological target: 97 kinases (kinase named in endpoint) (Homo sapiens, UniProt Q13153); test: Eurofins KINOMEscan profiling, 97 kinases; conditions: read-out: % Ctrl, PAK1
Procedure: as §2, §3, §4, §5, §6, §7

[4] = biological target: 97 kinases (kinase named in endpoint) (Homo sapiens, UniProt Q8NI60); test: Eurofins KINOMEscan profiling, 97 kinases; conditions: read-out: % Ctrl, ADCK3
Procedure: as §2, §3, §4, §5, §6, §7

[5] = biological target: 97 kinases (kinase named in endpoint) (Homo sapiens, UniProt P09619); test: Eurofins KINOMEscan profiling, 97 kinases; conditions: read-out: % Ctrl, PDGFRB
Procedure: as §2, §3, §4, §5, §6, §7

[6] = biological target: 97 kinases (kinase named in endpoint) (Homo sapiens, UniProt P08069); test: Eurofins KINOMEscan profiling, 97 kinases; conditions: read-out: % Ctrl, IGF1R
Procedure: as §2, §3, §4, §5, §6, §7

[7] = biological target: 97 kinases (kinase named in endpoint) (Homo sapiens, UniProt Q13177); test: Eurofins KINOMEscan profiling, 97 kinases; conditions: read-out: % Ctrl, PAK2
Procedure: as §2, §3, §4, §5, §6, §7

[8] = biological target: 97 kinases (kinase named in endpoint) (Homo sapiens, UniProt P30530); test: Eurofins KINOMEscan profiling, 97 kinases; conditions: read-out: % Ctrl, AXL
Procedure: as §2, §3, §4, §5, §6, §7

[9] = biological target: 97 kinases (kinase named in endpoint) (Homo sapiens, UniProt O96013); test: Eurofins KINOMEscan profiling, 97 kinases; conditions: read-out: % Ctrl, PAK4
Procedure: as §2, §3, §4, §5, §6, §7

[10] = biological target: 97 kinases (kinase named in endpoint) (Homo sapiens, UniProt Q9H4B4); test: Eurofins KINOMEscan profiling, 97 kinases; conditions: read-out: % Ctrl, PLK3
Procedure: as §2, §3, §4, §5, §6, §7

[11] = tested on: SK-MEL-147 cells; test: Transwell invasion assay; format: cell-based, human
Procedure: SK-MEL-147 cells were seeded at 400,000 cells/well in six-well plates and allowed to adhere in the incubator overnight. Cells were pretreated with drugs ranging from 200–0.01 μM, and incubated for 48 h. Subsequently, 8.0 μm PET membrane cell culture inserts (Falcon) were coated with 40 μL of 0.3 mg/mL Matrigel (Corning) diluted in serum-free media and incubated at 37 °C/5% CO2 for 5 h to allow the solution to gel. Unbound Matrigel was removed from the inserts, and membranes were rehydrated with serum-containing media for an additional hour. Treated cells were then trypsinized, collected by centrifugation, washed with DPBS, and resuspended in serum-free media. About 50,000 cells per treatment group were seeded into upper chambers with additional serum-free media. 10% FBS-containing media was placed into bottom chambers as a chemoattractant. After 24 h, inserts were then stained with crystal violet (Sigma-Aldrich) and washed with DPBS. Using an ECHO Revolve microscope, bright field images of 6 fields of view for each insert were taken at 10x magnification. The number of invaded cells in each image was quantified using ImageJ (version 1.52a). Bar graphs, dose-response curves, and IC50 values were established using GraphPad Prism (version 10.3.1), reporting the mean number of invaded cells relative to DMSO ± SD.
Transwell invasion assay. Representative brightfield images of invaded SK -MEL- 147 cells on transwell inserts at 10X magnification following peptide treatment. Images show invaded cells after treatment with various concentrations of 2020 (top panel), 2012 (middle panel), and defactinib (bottom panel), in addition to DMSO vehicle-control (left, top panel) and ad- FRNK positive control (left, bottom panel). Bar graphs reveal m ean number of invaded cells ± SD and calculated IC50 values across all dos e s of 2020 (left graph, n=2), 2012 (middle graph, n=6), and defactinib (right graph, n=4 ). All values for ‘n’ represent independent biological replicates. One -way ANOVA analyses and Dunnet’s multiple comparison tests were performed

[12] = tested on: LX-2 cells; test: cells; format: cell-based, human; conditions: 96 h
Procedure: (§1) Cells were seeded at 1000 cells per well in white-walled, clear bottom 96-well plates and allowed to adhere in the incubator for 24 h. […] Treatment doses were created in a 12-or 10-point, twofold serial dilution, starting at 200 μM. After 24 h of treatment, 10% FBS was spiked back into each well and the plate returned to 37 °C […]. After 96 h of drug treatment, the Promega 2D CellTiter-Glo reagent was added to each well at a 1:2 ratio of reagent to treatment media. […] This assay was performed a minimum of 3 (n = 3) times for each cell line, with each run containing a minimum of 3 technical replicates per run. IC50 curves were generated using GraphPad Prism (version 10.3.1), reporting the mean % viability relative to DMSO ± SD.

[13] = tested on: NHEM cells; test: cells; format: cell-based, human; conditions: 96 h
Procedure: as §1

[14] = tested on: SK-MEL-147 cells; test: cells; format: cell-based, human; conditions: 96 h
Procedure: as §1

[15] = tested on: Hep-G2 cells; test: cells; format: cell-based, human; conditions: 96 h
Procedure: as §1

[16] = tested on: WM88 cells; test: cells; format: cell-based, human; conditions: 96 h
Procedure: as §1

[17] = tested on: ONDA7 cells; test: cells; format: cell-based, human; conditions: 96 h
Procedure: as §1

[18] = Homo sapiens, average of n >= 3, read-out: cell viability IC50

97 kinases (kinase named in endpoint) (Homo sapiens, UniProt Q13177), sequence (Q13177 whole entry): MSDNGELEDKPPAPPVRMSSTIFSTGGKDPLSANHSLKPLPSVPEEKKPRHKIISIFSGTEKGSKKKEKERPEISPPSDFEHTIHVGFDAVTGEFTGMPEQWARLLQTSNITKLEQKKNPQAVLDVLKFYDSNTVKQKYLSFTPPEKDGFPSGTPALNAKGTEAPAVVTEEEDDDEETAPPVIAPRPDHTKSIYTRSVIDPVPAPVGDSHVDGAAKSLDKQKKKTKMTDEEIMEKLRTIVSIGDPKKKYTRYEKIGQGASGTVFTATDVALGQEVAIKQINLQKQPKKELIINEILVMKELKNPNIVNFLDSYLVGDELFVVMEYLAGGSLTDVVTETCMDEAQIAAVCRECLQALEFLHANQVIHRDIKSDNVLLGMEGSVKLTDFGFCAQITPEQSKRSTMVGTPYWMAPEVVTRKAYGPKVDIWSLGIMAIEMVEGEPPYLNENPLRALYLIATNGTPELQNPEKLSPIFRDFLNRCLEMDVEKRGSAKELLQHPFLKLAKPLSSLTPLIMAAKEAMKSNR
97 kinases (kinase named in endpoint) (Homo sapiens, UniProt P35968), sequence (P35968 20-1356): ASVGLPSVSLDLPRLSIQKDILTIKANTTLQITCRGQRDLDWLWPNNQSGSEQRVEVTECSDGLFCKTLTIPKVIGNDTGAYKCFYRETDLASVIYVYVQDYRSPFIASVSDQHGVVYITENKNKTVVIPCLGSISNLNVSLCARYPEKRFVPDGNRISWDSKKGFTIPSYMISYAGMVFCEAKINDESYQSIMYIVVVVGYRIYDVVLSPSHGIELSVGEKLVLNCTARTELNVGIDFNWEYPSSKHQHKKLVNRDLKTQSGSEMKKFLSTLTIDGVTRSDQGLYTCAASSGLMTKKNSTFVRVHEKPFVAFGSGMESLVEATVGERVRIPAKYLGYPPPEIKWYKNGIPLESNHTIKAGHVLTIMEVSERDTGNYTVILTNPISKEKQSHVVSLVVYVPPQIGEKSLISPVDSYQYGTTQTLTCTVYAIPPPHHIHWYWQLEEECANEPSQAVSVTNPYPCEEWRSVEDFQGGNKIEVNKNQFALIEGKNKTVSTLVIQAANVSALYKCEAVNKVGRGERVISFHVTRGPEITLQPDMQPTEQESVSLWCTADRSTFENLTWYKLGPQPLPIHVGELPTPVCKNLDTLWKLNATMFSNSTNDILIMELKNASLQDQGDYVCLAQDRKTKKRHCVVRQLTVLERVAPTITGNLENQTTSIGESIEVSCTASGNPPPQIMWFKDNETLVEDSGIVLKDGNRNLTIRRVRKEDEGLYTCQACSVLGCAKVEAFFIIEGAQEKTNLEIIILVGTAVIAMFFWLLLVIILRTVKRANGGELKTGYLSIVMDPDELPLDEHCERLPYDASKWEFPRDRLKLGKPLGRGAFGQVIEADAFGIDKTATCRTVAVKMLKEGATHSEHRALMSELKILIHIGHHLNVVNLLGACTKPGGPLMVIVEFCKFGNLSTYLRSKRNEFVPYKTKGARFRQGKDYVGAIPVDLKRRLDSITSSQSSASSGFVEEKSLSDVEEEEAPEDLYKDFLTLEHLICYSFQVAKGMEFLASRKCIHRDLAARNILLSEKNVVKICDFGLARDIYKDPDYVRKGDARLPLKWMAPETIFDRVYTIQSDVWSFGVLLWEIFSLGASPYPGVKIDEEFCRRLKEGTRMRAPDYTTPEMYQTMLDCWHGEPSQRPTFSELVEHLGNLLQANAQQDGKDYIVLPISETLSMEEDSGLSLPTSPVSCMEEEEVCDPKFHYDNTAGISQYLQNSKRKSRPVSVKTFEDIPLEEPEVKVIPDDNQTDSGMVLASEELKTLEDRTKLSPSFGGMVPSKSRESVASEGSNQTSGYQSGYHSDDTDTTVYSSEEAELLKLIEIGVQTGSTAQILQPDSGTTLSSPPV
97 kinases (kinase named in endpoint) (Homo sapiens, UniProt O96013), sequence (O96013 whole entry): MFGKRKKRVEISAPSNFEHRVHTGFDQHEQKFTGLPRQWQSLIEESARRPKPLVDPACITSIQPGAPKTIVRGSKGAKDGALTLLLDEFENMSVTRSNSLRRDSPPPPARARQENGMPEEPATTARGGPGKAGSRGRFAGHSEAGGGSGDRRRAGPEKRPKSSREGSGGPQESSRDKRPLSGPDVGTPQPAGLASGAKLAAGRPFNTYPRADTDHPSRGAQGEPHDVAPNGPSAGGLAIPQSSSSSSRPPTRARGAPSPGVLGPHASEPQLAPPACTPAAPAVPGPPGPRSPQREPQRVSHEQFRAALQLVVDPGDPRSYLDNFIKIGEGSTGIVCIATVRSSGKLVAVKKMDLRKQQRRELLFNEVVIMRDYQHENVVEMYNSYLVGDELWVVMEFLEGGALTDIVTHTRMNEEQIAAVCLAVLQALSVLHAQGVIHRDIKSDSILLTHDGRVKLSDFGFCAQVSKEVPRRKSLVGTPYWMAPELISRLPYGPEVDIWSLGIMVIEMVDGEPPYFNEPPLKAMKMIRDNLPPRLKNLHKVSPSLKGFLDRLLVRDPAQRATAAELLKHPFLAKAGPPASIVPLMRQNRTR
97 kinases (kinase named in endpoint) (Homo sapiens, UniProt Q13153), sequence (Q13153 whole entry): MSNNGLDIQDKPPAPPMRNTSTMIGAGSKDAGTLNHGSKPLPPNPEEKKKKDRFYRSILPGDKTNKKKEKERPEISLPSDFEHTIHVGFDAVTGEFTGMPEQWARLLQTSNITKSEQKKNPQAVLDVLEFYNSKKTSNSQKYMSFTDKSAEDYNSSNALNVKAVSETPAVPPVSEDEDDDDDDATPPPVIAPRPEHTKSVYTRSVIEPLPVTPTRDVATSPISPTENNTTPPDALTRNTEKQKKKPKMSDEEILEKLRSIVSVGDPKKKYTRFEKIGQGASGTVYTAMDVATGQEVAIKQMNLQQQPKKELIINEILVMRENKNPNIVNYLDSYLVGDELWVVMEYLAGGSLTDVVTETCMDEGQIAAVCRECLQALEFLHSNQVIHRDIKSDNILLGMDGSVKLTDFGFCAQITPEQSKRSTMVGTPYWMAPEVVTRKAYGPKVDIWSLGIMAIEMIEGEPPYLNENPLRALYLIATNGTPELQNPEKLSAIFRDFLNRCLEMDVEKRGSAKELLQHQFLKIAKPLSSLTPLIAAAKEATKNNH
97 kinases (kinase named in endpoint) (Homo sapiens, UniProt P30530), sequence (P30530 26-894): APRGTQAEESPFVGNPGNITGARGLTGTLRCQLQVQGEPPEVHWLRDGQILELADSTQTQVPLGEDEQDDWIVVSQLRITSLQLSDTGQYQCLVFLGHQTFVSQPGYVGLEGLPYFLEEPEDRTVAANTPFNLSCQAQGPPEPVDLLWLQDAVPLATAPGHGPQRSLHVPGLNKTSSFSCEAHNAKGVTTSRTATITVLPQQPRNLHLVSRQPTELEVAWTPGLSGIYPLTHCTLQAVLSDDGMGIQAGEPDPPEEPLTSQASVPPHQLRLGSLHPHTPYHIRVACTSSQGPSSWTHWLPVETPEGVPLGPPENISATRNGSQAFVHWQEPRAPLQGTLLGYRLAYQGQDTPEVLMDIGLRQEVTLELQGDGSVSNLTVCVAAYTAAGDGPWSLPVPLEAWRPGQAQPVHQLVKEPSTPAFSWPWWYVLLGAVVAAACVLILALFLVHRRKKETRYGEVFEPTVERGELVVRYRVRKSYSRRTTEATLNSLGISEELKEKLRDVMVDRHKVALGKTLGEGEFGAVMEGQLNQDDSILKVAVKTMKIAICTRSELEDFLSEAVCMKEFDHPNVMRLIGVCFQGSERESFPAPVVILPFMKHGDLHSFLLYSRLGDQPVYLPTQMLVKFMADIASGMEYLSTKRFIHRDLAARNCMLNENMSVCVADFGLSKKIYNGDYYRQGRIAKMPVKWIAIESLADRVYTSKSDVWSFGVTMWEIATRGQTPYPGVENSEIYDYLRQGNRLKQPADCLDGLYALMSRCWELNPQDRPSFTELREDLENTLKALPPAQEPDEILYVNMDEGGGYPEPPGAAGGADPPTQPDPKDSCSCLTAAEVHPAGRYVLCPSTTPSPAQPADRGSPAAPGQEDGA
97 kinases (kinase named in endpoint) (Homo sapiens, UniProt P09619), sequence (P09619 33-1106): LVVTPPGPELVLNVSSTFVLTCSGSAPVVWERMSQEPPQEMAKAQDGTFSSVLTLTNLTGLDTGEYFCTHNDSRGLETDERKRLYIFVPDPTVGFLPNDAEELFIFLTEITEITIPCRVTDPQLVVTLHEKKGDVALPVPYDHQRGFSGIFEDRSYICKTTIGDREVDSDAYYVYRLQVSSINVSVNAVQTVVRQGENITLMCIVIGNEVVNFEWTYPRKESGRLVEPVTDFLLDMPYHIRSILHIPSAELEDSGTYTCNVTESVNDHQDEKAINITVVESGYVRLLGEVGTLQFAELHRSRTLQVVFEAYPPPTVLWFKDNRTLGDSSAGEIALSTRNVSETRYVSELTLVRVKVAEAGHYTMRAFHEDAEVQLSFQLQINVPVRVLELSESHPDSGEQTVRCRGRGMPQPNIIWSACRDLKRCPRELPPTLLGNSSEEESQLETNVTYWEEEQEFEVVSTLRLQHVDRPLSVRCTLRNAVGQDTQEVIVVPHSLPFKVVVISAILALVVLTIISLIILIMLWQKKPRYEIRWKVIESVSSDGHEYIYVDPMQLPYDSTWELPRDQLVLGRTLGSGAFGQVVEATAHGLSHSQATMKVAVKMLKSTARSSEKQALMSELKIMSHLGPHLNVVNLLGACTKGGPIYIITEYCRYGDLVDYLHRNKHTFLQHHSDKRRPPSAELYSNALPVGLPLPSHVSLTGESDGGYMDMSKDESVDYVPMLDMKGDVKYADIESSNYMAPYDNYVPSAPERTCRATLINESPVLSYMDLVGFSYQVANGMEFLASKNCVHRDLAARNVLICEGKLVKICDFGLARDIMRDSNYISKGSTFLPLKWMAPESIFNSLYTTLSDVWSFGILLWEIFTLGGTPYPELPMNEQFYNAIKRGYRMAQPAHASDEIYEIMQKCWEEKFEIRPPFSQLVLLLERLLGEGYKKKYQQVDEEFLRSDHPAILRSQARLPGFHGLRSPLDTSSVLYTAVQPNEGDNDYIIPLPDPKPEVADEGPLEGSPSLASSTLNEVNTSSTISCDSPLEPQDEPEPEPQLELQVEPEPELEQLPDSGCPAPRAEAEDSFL

| SMILES | remaining binding at 1 µM [2] [%] | remaining binding at 1 µM [3] [%] | remaining binding at 1 µM [4] [%] | remaining binding at 1 µM [5] [%] | remaining binding at 1 µM [6] [%] | remaining binding at 1 µM [7] [%] | remaining binding at 1 µM [8] [%] | remaining binding at 1 µM [9] [%] | remaining binding at 1 µM [10] [%] | IC50 [12] [µM] | IC50 [13] [µM] | IC50 [14] [µM] | IC50 [15] [µM] | IC50 [16] [µM] | IC50 [17] [µM] | induction of apoptosis, time-course [1] | further results |
| --- | --- | --- | --- | --- | --- | --- | --- | --- | --- | --- | --- | --- | --- | --- | --- | --- | --- |
| CCCCCCCCCCCCCC(=O)N[C@@H](CC(N)=O)C(=O)N[C@@H](CC(C)C)C(=O)N[C@]1(C)CCCCCCC=CCCC[C@@](C)(C(=O)N[C@@H](CCC(=O)O)C(=O)N[C@@H](CC(C)C)C(=O)N[C@@H](CC(N)=O)C(N)=O)NC(=O)[C@H](CC(C)C)NC(=O)[C@H](CC(C)C)NC(=O)[C@H](CCCNC(=N)N)NC(=O)[C@H](CC(=O)O)NC(=O)[C@H](CC(C)C)NC(=O)[C@H](CCC(=O)O)NC1=O [compound 2012] | 100 | 100 | 100 | 94 | 100 | 100 | 74 | 100 | 94 | > 200 | > 200 | 2.36 | > 200 | 4.42 | 9.79 |  | EC50 ([1]; 96 h): 8.3 µM; IC50 ([11]; 48 h treatment): 1.8 µM |
| CCCCCCCCCCCCCC(=O)N[C@@H](CC(N)=O)C(=O)N[C@@H](CC(C)C)C(=O)N[C@]1(C)CCCCCCC=CCCC[C@@](C)(C(=O)N[C@@H](CCC(=O)O)C(=O)N[C@@H](CCC(=O)O)C(=O)N[C@@H](CC(N)=O)C(N)=O)NC(=O)[C@H](CC(C)C)NC(=O)[C@H](CC(C)C)NC(=O)[C@H](CCCNC(=N)N)NC(=O)[C@H](CC(=O)O)NC(=O)[C@H](CCC(=O)O)NC(=O)[C@H](CCC(=O)O)NC1=O [compound 2020] (Myristoyl-NL[R8]EEDRLL[S5]EEN-NH2; staple 3-10) |  |  |  |  |  |  |  |  |  | > 200 | > 200 | > 200 | > 200 | > 200 | > 200 | no effect at any timepoint | invasion IC50 ([11]; 48 h treatment): no effect |
| CNC(=O)c1ccc(Nc2ncc(C(F)(F)F)c(NCc3nccnc3N(C)S(C)(=O)=O)n2)cc1 [defactinib] | 37 | 65 | 93 | 18 | 71 | 45 | 3.6 | 7.4 | 28 |  |  |  |  |  |  | no effect at any timepoint | Annexin V apoptosis EC50 ([1]; 96 h): did not exhibit a dose-dependent effect; percentage of invaded cells ([11]; 2.5 µM): 0%; IC50 ([12]; Homo sapiens, LX-2, average of n >= 3, read-out: cell viability IC50): 2.19 µM; IC50 [13, 18]: > 200 µM; IC50 ([14]; Homo sapiens, SK-MEL-147, average of n >= 3, read-out: cell viability IC50): 2.84 µM; IC50 ([15]; Homo sapiens, HepG2, average of n >= 3, read-out: cell viability IC50): 67 µM; IC50 [16, 18]: 21.2 µM; IC50 [17, 18]: 18.9 µM |
